Data published in patent US8907089B2, “Fused heterocyclic ring derivative and use thereof” (Takeda Pharmaceutical Company Limited, priority 2009, dated 2014).

System: mouse medulloblastoma (Patched 1(+/-), p53(-/-)) subcutaneously transplanted into nude mouse
Assay: In vivo anti-tumor test, mouse medulloblastoma allogeneic transplantation model
Conditions: 1 mg/kg, orally twice a day for 2 weeks, 0.5% methylcellulose suspension; nude mouse with subcutaneous medulloblastoma; at the end of the test; p < 0.025 (Dunnett's test)
Protocol: According to the description in Sasaki, K. et al., (2006) Cancer Res. 66: 4215-4222, an anti-tumor effect of a compound was evaluated using a mouse medulloblastoma allogeneic transplantation model. To be precise, Patched 1 gene mutant mouse (lineage name: Ptch1tm1Mps/J) was purchased from The Jackson Laboratory and p53 gene mutant mouse (lineage name: P53N4-M, Nomenclature: B6.129-Trp53tm/BrdN4) was purchased from Taconic, and a mouse of Patched 1(+/−), p53(−/−) phenotype was prepared by mating. […]
An anti-tumor test was performed using a tumor passaged by subcutaneous transplantation. […] The tumor diameter after transplantation was measured and, when the tumor size reached 150-250 mm^3, the anti-tumor test was started using 5 mice per group.
The test compound was prepared to achieve a dose of 1 mg/kg with a 0.5% methylcellulose (Shin-Etsu Chemical Co. Ltd., Cat. No. SM-100) suspension, and orally administered twice a day for 2 weeks. The tumor size was calculated based on the longer diameter and shorter diameter of the tumor measured with an electron vernier caliper. After the start of the test, the tumor size was measured every 2 or 3 days and the growth rate of the tumor size was calculated. […]

SMILES | T/C (%) growth rate of the tumor size [%]
CCc1cc2c(c(OC(C)C)c(C(=O)NC3CCN(C(=O)CO)CC3)n2C)c(=O)n1-c1ccc(F)cc1 [Example 7, 6-ethyl-5-(4-fluorophenyl)-N-[1-(hydroxyacetyl)piperidin-4-yl]-1-methyl-3-(1-methylethoxy)-4-oxo-4,5-dihydro-1H-pyrrolo[3,2-c]pyridine-2-carboxamide] | 40
CCc1cc2c(c(OCC(F)(F)F)c(C(=O)NC3CCN(C(=O)CO)CC3)n2C)c(=O)n1-c1ccc(F)cc1 [Example 5, 6-ethyl-5-(4-fluorophenyl)-N-[1-(hydroxyacetyl)piperidin-4-yl]-1-methyl-4-oxo-3-(2,2,2-trifluoroethoxy)-4,5-dihydro-1H-pyrrolo[3,2-c]pyridine-2-carboxamide] | 42
